Measurements from US12618847B2 (Purdue Research Foundation, priority 2020, dated 2026).
pIC50: −log10 of the molar value. Entries after “also recorded” stand apart in the source; their conditions may differ. Read-outs that look alike come from different tables or passages of the source. One block for each compound: values may come before it. *1 amine or outer side, *2 acyl side, *3 side chain or, on linkers, in order; H or OH if unused. Where a SMILES comes first, the peptide text is derived from it. Where no end group is shown, it is not given here. [ ]: non-standard residue; d: D form. The star is where a group is joined. Phe(4-NO2) = N[C@@H](Cc1ccc([N+](=O)[O-])cc1)C(=O)O; Phe(4-Cl) = N[C@@H](Cc1ccc(Cl)cc1)C(=O)O; 2Thi = N[C@@H](Cc1cccs1)C(=O)O; AMC = Cc1cc(=O)oc2cc(N*)ccc12; Suc = O=C(CCC(=O)[*:2])[*:1]; Nva = CCC[C@H](N)C(=O)O; Cbz = O=C(OCc1ccccc1)*

Experiments:
[1] = Human serum stability of library peptides by LC/MS; assay type: in vitro ADME; conditions: 20S CP one hour vs 10% human serum 10 min
Source text: This is supported by when we first optimized conditions for treating the peptides with human serum using Tyr-containing peptide.
Specifically, these were the four Phe derivatives tested. […] Because we were interested in the effects of unnatural amino acids in increasing the specificity of our 20S CP recognition sequence, we moved forward with Phe(4-Cl) and Phe(4-NO2) as Tyr substitutes in our probe structure to create TAS2 and TAS3, respectively (FIG. 1B).

20S CP [2] = target: T1, 20S CP (Homo sapiens, UniProt P20618+P28074); assay: LC/MS assay of peptide library as 20S CP substrates; assay type: biochemical; conditions: 12 μM peptide, 9 nM 20S CP, 37° C., one hour
Experimental: To evaluate this set of peptides as potential 20S CP substrates, we applied a similar LC/MS-based assay to that used to discover the immunoproteasome probe. Briefly, the peptides were dissolved in DMSO at a stock concentration of 600 μM. The peptides were then diluted in 50 mM tris buffer, pH 7.4, in a 96-well plate for a final assay concentration of 12 μM in two sets of triplicates. One set of triplicates served as a negative control, incubated in tris buffer alone. For analysis, this would correspond to the ionization intensity of completely intact samples, which can then be compared to the amount of intact peptide remaining in 20S CP-treated samples. To the other triplicate was added 20S CP to a final concentration of 9 nM. All samples were incubated at 37° C. for one hour before an equal volume of acetonitrile was added to halt degradation by denaturing the 20S CP. Samples were dried, resuspended in 50/50 water/acetonitrile with 0.1% formic acid and analyzed by LC/MS (example spectra can be found in Supporting Information Appendix B).
For each peptide, the mass of the full (uncleaved) structure was extracted (extracted ion chromatogram, EIC) from each sample and this peak was integrated to obtain the peak area. The peak areas for the negative control samples of individual structures were averaged and set to 1. Peak areas for 20S CP-treated samples were then scaled to the average for the untreated sample and the triplicates averaged to obtain a value for the fraction of full peptide remaining (FIG. 4). To confirm that the peptide was being cleaved at the desired position, the mass of the corresponding 4mer-peptide cleavage product was found in each 20S CP-treated sample with significant decrease in full peptide observed.

20S CP [3] = conditions: cited from earlier work
20S CP [4] = target: T1, 20S CP; assay: Fluorescence hydrolysis of probes by purified 20S CP (plate reader); assay type: biochemical
Experimental: The peptide recognition sequence used was based on the commercially available 4-mer AMC probe (FIG. 1A), specifically Leu-Leu-Val-Tyr (SEQ ID NO: 1), to generate TAS1 (FIG. 1B). To determine if TAS1 had any enhanced sensitivity, the two probes were compared under the same conditions with purified 20S CP. Briefly, the probes were incubated in triplicate at 10 and 30 μM with 9 nM […] at 37° C. The change in fluorescence was monitored for two hours and the endpoint values were averaged and graphed for comparison (FIG. 1C). Because the two fluorophores have different excitation and emission wavelengths, the two experiments were performed separately but using the same conditions for the plate reader (i.e. gain, number of flashes, settling time, etc.). […] Since, unlike Suc-LLVY-AMC (SEQ ID NO: 1), TAS1 has the potential to have more than one cleavage site which could result in an increase in fluorescence (on either side of Rh110), we confirmed that the increase in signal is only from the recognition and cleavage of the peptide at the Tyr moiety by analyzing the 30 μM TAS1 samples by LC/MS (FIG. 2).
With these new peptide sequences in hand, we returned to incorporating the Rh110-peptoid moiety and to compare the cleavage of TAS1-3 with the 20S CP. We incubated all three probes at various concentrations with 9 nM 20S CP and monitored the change in fluorescence using a microplate reader. […] In order to compare the three probes, we fit a linear regression for the points from 10-60 min for 30 μM of each probe to obtain a rate for the change in fluorescence (Table 1). Of the three, TAS1 was hydrolyzed the quickest, although the slope for TAS2 was similar. […] To confirm that the change in fluorescence was due to amide bond cleavage at the expected site on the peptide, we analyzed the samples at a concentration of 30 μM by LC/MS (FIG. 3).

[5] = 10% v/v human serum in tris buffer; conditions: up to 60 min
20S CP [6] = assay: purified 20S CP; conditions: 37° C., up to two hours
A549 cells = assay: Probe cleavage in live A549 cells with or without MG-132 pretreatment; assay type: cell-based; conditions: MG-132 10 μM pre-incubated one hour, each TAS probe at 10 μM
Experimental: We next sought to determine if the TAS probes would be suitable for cell-based assays. To accomplish this, A549 cells were plated at a density of 5,000 cells/well in a black 96 well plate with a black bottom. After allowing the cells to adhere to the plate, the samples were washed with PBS three times then dosed with 10 μM of each probe in modified KRBH buffer. The change in fluorescence was recorded on a microplate reader for 90 min. After allowing the signal to equilibrate for […], each sample was set to zero and the future time points were scaled accordingly. As was done with the biochemical data, a linear regression was fit to each set of data. From the slope, it is observed that the rate for TAS2 was the highest. To determine the in-cell selectivity, a set of samples pretreated with MG-132 (10 μM), a proteasome inhibitor, was included for each probe. These samples were pre-incubated with MG-132 in cell culture media for one hour before washing with PBS and dosing with each probe in modified KRBH buffer. […] To ensure this decrease was not a consequence of cell death, cells were treated in the same way and analyzed using Cell-Titer Glo.

[7] = tested on: A498, SK-MEL-2, MEL-92.1, SH-SY5Y and HEK293T cell lines; assay: Cell viability by Cell-Titer Glo; assay type: cell-based; conditions: remaining cell lines, 48 hours
Experimental: (§1) We also sought to correlate this proteasome activity trend with susceptibility to a proteasome inhibitor by determining the IC50 values of MG-132 with these six cells. Cells were dosed for 48 hours with increase concentrations of MG-132 then analyzed using Cell-Titer Glo to determine cell viability. […] Considering this, we still believe comparing cell lines for proteasome activity based on fluorescence with TAS2 would still provide insight to the relative dependency of various cancer cell lines on proteasome activity.

MM.1R = assay: Cell viability by Cell-Titer Glo; assay type: cell-based; conditions: 48 hours
Experimental: as §1

Cleavage of peptide by 20S CP (in words) (20S CP [2]): significantly cleaved
Compound: CNCC(=O)O [Sar]
Cleavage by 20S CP compared to human serum [1]: no significant difference in cleavage; also recorded: near equal cleavage by both

Peptide cleaved by 20S CP (20S CP [2]): ~50%
Compound: N[C@@H](CCO)C(=O)O [Hse]

Cleavage of peptide by 20S CP (in words) (20S CP [2]): highest amount of cleavage
Compound: Thi: library peptide with thienylalanine in S1 position replacing Tyr, Ala-Ala dipeptide (LLV[2Thi]AA-NH2; N-terminus assumed; SMILES CC(C)C[C@H](NC(=O)[C@@H](N)CC(C)C)C(=O)N[C@H](C(=O)N[C@@H](Cc1cccs1)C(=O)N[C@@H](C)C(=O)N[C@@H](C)C(N)=O)C(C)C)
Cleavage by 20S CP compared to human serum [1]: near equal cleavage by both

Rate of Hydrolysis (20S CP [4]; 30 μM probe, 9 nM purified 20S CP, linear regression 10-60 min): 28.1 ΔRFU/min | Background fluorescence level (20S CP [4]; purified 20S CP assay): considerably higher level of background
Compound: TAS3: Rh110-based peptide/peptoid hybrid probe with Phe(4-NO2) as Tyr substitute (LLV[Phe(4-NO2)]; also: Rh110-based probe, place not given here, peptide/peptoid hybrid)
Cleavage products after incubation with 20S CP (LC/MS) (20S CP [4]; 30 μM probe, LC/MS): only produced the expected cleavage products

Cleavage of peptide by 20S CP (in words) (20S CP [2]): did not accept
Compound: D-Phe: library peptide with D-Phe moiety in S1 position replacing Tyr, Ala-Ala dipeptide (LLV[dF]AA-NH2; N-terminus assumed; SMILES CC(C)C[C@H](NC(=O)[C@@H](N)CC(C)C)C(=O)N[C@H](C(=O)N[C@H](Cc1ccccc1)C(=O)N[C@@H](C)C(=O)N[C@@H](C)C(N)=O)C(C)C)

cleaved bond (20S CP [6]): Tyr-Rh110
Compound: Leu-Leu-Val-Tyr
cleaved bond [5]: Leu-Leu, first_seen, 30 min; also recorded: Leu-Val, 60 min | not cleaved [5]: no productive cleavage for either 30 or 60 min | not cleaved (20S CP [6]): only new peaks formed were the expected cleavage products

Further lines, the compound ahead of its results:

Compound: Phe: library peptide with Phe in S1 position replacing Tyr, Ala-Ala dipeptide (LLVFAA)
Cleavage by 20S CP compared to human serum [1]: greater than three-times favored cleavage by the 20S CP

Compound: Nva: library peptide with norvaline in S1 position replacing Tyr, Ala-Ala dipeptide (LLV[Nva]AA-NH2; N-terminus assumed; SMILES CCC[C@H](NC(=O)[C@@H](NC(=O)[C@H](CC(C)C)NC(=O)[C@@H](N)CC(C)C)C(C)C)C(=O)N[C@@H](C)C(=O)N[C@@H](C)C(N)=O)
Peptide cleaved by 20S CP (20S CP [2]): ~50%

Compound: Phe(4-NO2): library peptide with Phe(4-NO2) in S1 position replacing Tyr, Ala-Ala dipeptide (LLV[Phe(4-NO2)]AA-NH2; N-terminus assumed; SMILES CC(C)C[C@H](NC(=O)[C@@H](N)CC(C)C)C(=O)N[C@H](C(=O)N[C@@H](Cc1ccc([N+](=O)[O-])cc1)C(=O)N[C@@H](C)C(=O)N[C@@H](C)C(N)=O)C(C)C)
Cleavage by 20S CP compared to human serum [1]: greater than three-times favored cleavage by the 20S CP

Compound: Phe(4-Cl): library peptide with Phe(4-Cl) in S1 position replacing Tyr, Ala-Ala dipeptide (LLV[Phe(4-Cl)]AA-NH2; N-terminus assumed; SMILES CC(C)C[C@H](NC(=O)[C@@H](N)CC(C)C)C(=O)N[C@H](C(=O)N[C@@H](Cc1ccc(Cl)cc1)C(=O)N[C@@H](C)C(=O)N[C@@H](C)C(N)=O)C(C)C)
Cleavage by 20S CP compared to human serum [1]: greater than three-times favored cleavage by the 20S CP

Compound: CCCC[C@H](N)C(=O)O [norleucine]
Peptide cleaved by 20S CP (20S CP [2]): ~50%

Compound: Suc-LLVY-{AMC}
cleaved bond (20S CP [3]): Tyr-AMC

Compound: CC(C)C[C@@H](C=O)NC(=O)[C@H](CC(C)C)NC(=O)[C@H](CC(C)C)NC(=O)OCc1ccccc1 [MG-132] (Cbz-Leu-Leu-Leu-aldehyde)
Decrease of slope of probe cleavage (A549 cells): ≥ 50% | IC50 (cell viability) [7]: higher than that of MM.1R | pIC50 (MM.1R): 6.58
